From patent publication US20230406885A1, “CYCLIC PEPTIDES FOR TRAPPING INTERLEUKIN-1 BETA” (MERCK SHARP & DOHME LLC, priority 2022, published 2023) come the findings set out here.

*1 amine or outer side, *2 acyl side, *3 side chain or, on linkers, in order; H or OH if unused. Where a SMILES comes first, the peptide text is derived from it. [ ]: non-standard residue; d: D form. Trp(βS-Me,4-F) = C[C@@H](c1c[nH]c2cccc(F)c12)[C@H](N)C(=O)O; Bip(4'-COOH) = N[C@@H](Cc1ccc(-c2ccc(C(=O)O)cc2)cc1)C(=O)O; Phe(3-CH2NH2) = O=C([C@H](Cc1cccc(CN[*:3])c1)N[*:1])[*:2]; 1Nal(3S-Me) = C[C@@H](c1cccc2ccccc12)[C@H](N)C(=O)O; X11 = O=C([C@@H]1C[C@@H](NCc2ccccc2)CN1[*:1])[*:2]; X5 = O=C([C@@H]1C[C@@H](NCCc2ccccc2)CN1[*:1])[*:2]; Phe(3-allyloxy) = C=CCOc1cccc(C[C@H](N)C(=O)O)c1; Phe(3-Ph) = N[C@@H](Cc1cccc(-c2ccccc2)c1)C(=O)O; Phe(4-COOH) = N[C@@H](Cc1ccc(C(=O)O)cc1)C(=O)O; X4 = CCN[C@@H]1C[C@@H](C(=O)[*:2])N([*:1])C1; Pro(4R-NH2) = N[C@H]1CN[C@H](C(=O)O)C1; hTyr = N[C@@H](CCc1ccc(O)cc1)C(=O)O; dDab = NCC[C@@H](N)C(=O)O; dNMeA = CN[C@H](C)C(=O)O; Nva = CCC[C@H](N)C(=O)O; Dap = NC[C@H](N)C(=O)O

T1 sequence (P01584 117-269): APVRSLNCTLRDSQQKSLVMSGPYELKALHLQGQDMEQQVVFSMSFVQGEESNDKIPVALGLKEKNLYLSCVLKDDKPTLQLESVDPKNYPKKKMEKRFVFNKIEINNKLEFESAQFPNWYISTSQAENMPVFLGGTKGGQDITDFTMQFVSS

The assay addresses T1, Recombinant human IL-1β (Homo sapiens, UniProt P01584).
T1 construct: purchased BioLegend 579404
The assay can be described thus: IL-6 assay in MRC5 cells: inhibition of IL-1β induced IL-6 secretion (AlphaLISA). The settings on record: inhibition of IL-1β induced IL-6 secretion in MRC5 cells; IL-1β pre-incubated 1 hour with compound; read-out: MRC5 IC50. The class given is cell-based. An outline of the steps:
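IL-1β at 2×EC80 in seeding medium (EMEM, 0.025% BSA) preincubated 1 h at ambient temperature with compound, then 3000 MRC5 cells/well added and incubated overnight at 37 °C, 5% CO2. IL-6 in conditioned medium quantified by AlphaLISA; IC50 from 4-parameter logistic fit.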
Usually IC50 stands for the concentration that inhibits the measured activity by half. With `C[C@@H]1C(=O)NCC(=O)N[C@@H](Cc2ccc(-c3ccc(C(=O)O)cc3)cc2)C(=O)N[C@@H](CCCCN)C(=O)N[C@@H](CO)C(=O)N[C@H](C)C(=O)N[C@@H](CCc2ccc(O)cc2)C(=O)N[C@@H](Cc2ccc(-c3ccc(C(=O)O)cc3)cc2)C(=O)N[C@@H](Cc2c[nH]c3ccccc23)C(=O)N[C@@H](Cc2ccc(C(=O)O)cc2)C(=O)NCC(=O)N2C[C@H](N)C[C@H]2C(=O)N[C@@H]([C@@H](C)c2c[nH]c3cccc(F)c23)C(=O)N[C@@H](CC(=O)O)C(=O)N1C` [Example 72] (cyclo([Bip(4'-COOH)]W[Phe(4-COOH)]G[Pro(4R-NH2)][Trp(βS-Me,4-F)]D[dNMeA]G[Bip(4'-COOH)]KS[dA][hTyr])), the concentration for half-maximal inhibition (IC50) turned out to be 0.107 nM. Take `CC(C)C[C@@H]1NC(=O)[C@H](Cc2cccc(CN)c2)NC(=O)[C@H](Cc2ccc(-c3ccc(C(=O)O)cc3)cc2)NC(=O)CNC(=O)[C@@H](C)N(C)C(=O)[C@H](CC(=O)O)NC(=O)[C@H]([C@@H](C)c2c[nH]c3cccc(F)c23)NC(=O)[C@@H]2C[C@@H](N)CN2C(=O)CNC(=O)[C@H](Cc2ccc(C(=O)O)cc2)NC(=O)[C@H](Cc2c[nH]c3ccccc23)NC(=O)[C@H](Cc2ccc(-c3ccc(C(=O)O)cc3)cc2)NC(=O)[C@H](CCc2ccc(O)cc2)NC(=O)[C@@H](C)NC1=O` [Example 73] (cyclo([Bip(4'-COOH)]W[Phe(4-COOH)]G[Pro(4R-NH2)][Trp(βS-Me,4-F)]D[dNMeA]G[Bip(4'-COOH)][Phe(3-CH2NH2)]L[dA][hTyr])): the IC50 came to 0.0509 nM. For `C[C@@H]1C(=O)NCC(=O)N[C@@H](Cc2ccc(-c3ccc(C(=O)O)cc3)cc2)C(=O)N[C@@H](Cc2cccc(CN)c2)C(=O)N[C@@H](CO)C(=O)N[C@H](C)C(=O)N[C@@H](CCc2ccc(O)cc2)C(=O)N[C@@H](Cc2ccc(-c3ccc(C(=O)O)cc3)cc2)C(=O)N[C@@H](Cc2c[nH]c3ccccc23)C(=O)N[C@@H](Cc2ccc(C(=O)O)cc2)C(=O)NCC(=O)N2C[C@H](N)C[C@H]2C(=O)N[C@@H]([C@@H](C)c2c[nH]c3cccc(F)c23)C(=O)N[C@@H](CC(=O)O)C(=O)N1C` [Example 74] (cyclo([Bip(4'-COOH)]W[Phe(4-COOH)]G[Pro(4R-NH2)][Trp(βS-Me,4-F)]D[dNMeA]G[Bip(4'-COOH)][Phe(3-CH2NH2)]S[dA][hTyr])), the half-maximal inhibitory concentration (IC50) turned out to be 0.296 nM. Turning to `CC(C)C[C@@H]1NC(=O)[C@H](Cc2cccc(-c3ccccc3)c2)NC(=O)[C@H](Cc2ccc(-c3ccc(C(=O)O)cc3)cc2)NC(=O)CNC(=O)[C@@H](C)N(C)C(=O)[C@H](CC(=O)O)NC(=O)[C@H]([C@@H](C)c2c[nH]c3cccc(F)c23)NC(=O)[C@@H]2C[C@@H](N)CN2C(=O)CNC(=O)[C@H](Cc2ccc(C(=O)O)cc2)NC(=O)[C@H](Cc2c[nH]c3ccccc23)NC(=O)[C@H](Cc2ccc(-c3ccc(C(=O)O)cc3)cc2)NC(=O)[C@H](CCc2ccc(O)cc2)NC(=O)[C@@H](C)NC1=O` [Example 75] (cyclo([Bip(4'-COOH)]W[Phe(4-COOH)]G[Pro(4R-NH2)][Trp(βS-Me,4-F)]D[dNMeA]G[Bip(4'-COOH)][Phe(3-Ph)]L[dA][hTyr])), the IC50 is 0.165 nM. On to `C=CCOc1cccc(C[C@@H]2NC(=O)[C@H](Cc3ccc(-c4ccc(C(=O)O)cc4)cc3)NC(=O)CNC(=O)[C@@H](C)N(C)C(=O)[C@H](CC(=O)O)NC(=O)[C@H]([C@@H](C)c3c[nH]c4cccc(F)c34)NC(=O)[C@@H]3C[C@@H](N)CN3C(=O)CNC(=O)[C@H](Cc3ccc(C(=O)O)cc3)NC(=O)[C@H](Cc3c[nH]c4ccccc34)NC(=O)[C@H](Cc3ccc(-c4ccc(C(=O)O)cc4)cc3)NC(=O)[C@H](CCc3ccc(O)cc3)NC(=O)[C@@H](C)NC(=O)[C@H](CC(C)C)NC2=O)c1` [Example 76] (cyclo([Bip(4'-COOH)]W[Phe(4-COOH)]G[Pro(4R-NH2)][Trp(βS-Me,4-F)]D[dNMeA]G[Bip(4'-COOH)][Phe(3-allyloxy)]L[dA][hTyr])), for which the IC50 is 0.122 nM. For the compound `C[C@@H]1C(=O)NCC(=O)N[C@@H](Cc2ccc(-c3ccc(C(=O)O)cc3)cc2)C(=O)N[C@@H](Cc2c[nH]c3ccccc23)C(=O)NCC(=O)N[C@H](CCN)C(=O)N[C@@H](CCc2ccc(O)cc2)C(=O)N[C@@H](Cc2ccc(-c3ccc(C(=O)O)cc3)cc2)C(=O)N[C@@H](Cc2c[nH]c3ccccc23)C(=O)N[C@@H](Cc2ccc(C(=O)O)cc2)C(=O)NCC(=O)N2C[C@H](N)C[C@H]2C(=O)N[C@@H]([C@@H](C)c2c[nH]c3cccc(F)c23)C(=O)N[C@@H](CC(=O)O)C(=O)N1C` [Example 77] (cyclo([Bip(4'-COOH)]W[Phe(4-COOH)]G[Pro(4R-NH2)][Trp(βS-Me,4-F)]D[dNMeA]G[Bip(4'-COOH)]WG[dDab][hTyr])), the IC50 amounted to 0.0601 nM. As for `CC(C)C[C@@H]1NC(=O)[C@H](Cc2c[nH]c3ccccc23)NC(=O)[C@H](Cc2ccc(-c3ccc(C(=O)O)cc3)cc2)NC(=O)CNC(=O)[C@@H](C)N(C)C(=O)[C@H](CC(=O)O)NC(=O)[C@H]([C@@H](C)c2c[nH]c3cccc(F)c23)NC(=O)[C@@H]2C[C@@H](N)CN2C(=O)CNC(=O)[C@H](Cc2ccc(C(=O)O)cc2)NC(=O)[C@H](Cc2c[nH]c3ccccc23)NC(=O)[C@H](Cc2ccc(-c3ccc(C(=O)O)cc3)cc2)NC(=O)[C@H](CCc2ccc(O)cc2)NC(=O)[C@@H](C)NC1=O` [Example 78] (cyclo([Bip(4'-COOH)]W[Phe(4-COOH)]G[Pro(4R-NH2)][Trp(βS-Me,4-F)]D[dNMeA]G[Bip(4'-COOH)]WL[dA][hTyr])), the 50% inhibitory concentration (IC50) came out at 0.0732 nM.

Consider `CCC[C@@H]1NC(=O)[C@H](Cc2c[nH]c3ccccc23)NC(=O)[C@H](Cc2ccc(-c3ccc(C(=O)O)cc3)cc2)NC(=O)CNC(=O)[C@@H](C)N(C)C(=O)[C@H](CC(=O)O)NC(=O)[C@H]([C@@H](C)c2c[nH]c3cccc(F)c23)NC(=O)[C@@H]2C[C@@H](N)CN2C(=O)CNC(=O)[C@H](Cc2ccc(C(=O)O)cc2)NC(=O)[C@H](Cc2c[nH]c3ccccc23)NC(=O)[C@H](Cc2ccc(-c3ccc(C(=O)O)cc3)cc2)NC(=O)[C@H](C)NC(=O)[C@@H](C)NC1=O` [Example 79] (cyclo([Bip(4'-COOH)]W[Phe(4-COOH)]G[Pro(4R-NH2)][Trp(βS-Me,4-F)]D[dNMeA]G[Bip(4'-COOH)]W[Nva][dA]A)), for which the IC50 was 0.189 nM. For the compound `CC(C)C[C@@H]1NC(=O)[C@H](CCCCN)NC(=O)[C@H](Cc2ccc(-c3ccc(C(=O)O)cc3)cc2)NC(=O)CNC(=O)[C@@H](C)N(C)C(=O)[C@H](CC(N)=O)NC(=O)[C@H]([C@@H](C)c2c[nH]c3cccc(F)c23)NC(=O)[C@@H]2C[C@@H](N)CN2C(=O)CNC(=O)[C@H](Cc2ccc(C(=O)O)cc2)NC(=O)[C@H](Cc2c[nH]c3ccccc23)NC(=O)[C@H](Cc2ccc(-c3ccc(C(=O)O)cc3)cc2)NC(=O)[C@H](CCc2ccc(O)cc2)NC(=O)[C@@H](C)NC1=O` [Example 80] (cyclo([Bip(4'-COOH)]W[Phe(4-COOH)]G[Pro(4R-NH2)][Trp(βS-Me,4-F)]N[dNMeA]G[Bip(4'-COOH)]KL[dA][hTyr])), the 50% inhibitory concentration (IC50) was 0.291 nM.

Regarding `CC(C)C[C@@H]1NC(=O)[C@H](CCCCN)NC(=O)[C@H](Cc2ccc(-c3ccc(C(=O)O)cc3)cc2)NC(=O)CNC(=O)[C@@H](C)N(C)C(=O)[C@H](CC(N)=O)NC(=O)[C@H]([C@@H](C)c2c[nH]c3cccc(F)c23)NC(=O)[C@@H]2C[C@@H](N)CN2C(=O)CNC(=O)[C@H](Cc2ccc(C(=O)O)cc2)NC(=O)[C@H](Cc2c[nH]c3ccccc23)NC(=O)[C@H](Cc2ccc(-c3ccc(C(=O)O)cc3)cc2)NC(=O)[C@H](CCc2ccc(O)cc2)NC(=O)[C@@H](CCN)NC1=O` [Example 81] (cyclo([Bip(4'-COOH)]W[Phe(4-COOH)]G[Pro(4R-NH2)][Trp(βS-Me,4-F)]N[dNMeA]G[Bip(4'-COOH)]KL[dDab][hTyr])), the IC50 stood at 0.255 nM. Consider `C[C@@H]1C(=O)NCC(=O)N[C@@H](Cc2ccc(-c3ccc(C(=O)O)cc3)cc2)C(=O)N[C@@H](Cc2c[nH]c3ccccc23)C(=O)N[C@@H](CN)C(=O)N[C@H](C)C(=O)N[C@@H](CCc2ccc(O)cc2)C(=O)N[C@@H](Cc2ccc(-c3ccc(C(=O)O)cc3)cc2)C(=O)N[C@@H](Cc2c[nH]c3ccccc23)C(=O)N[C@@H](Cc2ccc(C(=O)O)cc2)C(=O)NCC(=O)N2C[C@H](NCc3ccccc3)C[C@H]2C(=O)N[C@@H]([C@@H](C)c2cccc3ccccc23)C(=O)N[C@@H](CC(=O)O)C(=O)N1C` [Example 82] (cyclo([Bip(4'-COOH)]W[Phe(4-COOH)]G[X11][1Nal(3S-Me)]D[dNMeA]G[Bip(4'-COOH)]W[Dap][dA][hTyr])), for which the IC50 stood at 0.0157 nM. Turning to `C[C@@H]1C(=O)NCC(=O)N[C@@H](Cc2ccc(-c3ccc(C(=O)O)cc3)cc2)C(=O)N[C@@H](Cc2c[nH]c3ccccc23)C(=O)N[C@@H](CN)C(=O)N[C@H](C)C(=O)N[C@@H](CCc2ccc(O)cc2)C(=O)N[C@@H](Cc2ccc(-c3ccc(C(=O)O)cc3)cc2)C(=O)N[C@@H](Cc2c[nH]c3ccccc23)C(=O)N[C@@H](Cc2ccc(C(=O)O)cc2)C(=O)NCC(=O)N2C[C@H](NCCc3ccccc3)C[C@H]2C(=O)N[C@@H]([C@@H](C)c2cccc3ccccc23)C(=O)N[C@@H](CC(=O)O)C(=O)N1C` [Example 83] (cyclo([Bip(4'-COOH)]W[Phe(4-COOH)]G[X5][1Nal(3S-Me)]D[dNMeA]G[Bip(4'-COOH)]W[Dap][dA][hTyr])), the IC50 stood at 0.0329 nM. The figure for `CCN[C@@H]1C[C@H]2C(=O)N[C@@H]([C@@H](C)c3cccc4ccccc34)C(=O)N[C@@H](CC(=O)O)C(=O)N(C)[C@H](C)C(=O)NCC(=O)N[C@@H](Cc3ccc(-c4ccc(C(=O)O)cc4)cc3)C(=O)N[C@@H](Cc3c[nH]c4ccccc34)C(=O)N[C@@H](CN)C(=O)N[C@H](C)C(=O)N[C@@H](CCc3ccc(O)cc3)C(=O)N[C@@H](Cc3ccc(-c4ccc(C(=O)O)cc4)cc3)C(=O)N[C@@H](Cc3c[nH]c4ccccc34)C(=O)N[C@@H](Cc3ccc(C(=O)O)cc3)C(=O)NCC(=O)N2C1` [Example 84] (cyclo([Bip(4'-COOH)]W[Phe(4-COOH)]G[X4][1Nal(3S-Me)]D[dNMeA]G[Bip(4'-COOH)]W[Dap][dA][hTyr])) is 0.0258 nM.
